In assay [1] the test system is unidentified mold. Put plainly: Growth of mold on petri dishes with fungicide composition in growth media (diameter). Format: cell-based. The settings on record: 25° C., 3-5 days. As to the method:
The fungus was allowed to grow at 25° C. for 3-5 days. At the end of this period, the diameter of the fungus on the plate was measured. All results were duplicated to assure accuracy.

Assay [2] has as its system fungus spores. Nature of the assay: Fungus spore germination in growth media with fungicide composition (colony count). To be noted: 3-5 days incubation. Format: cell-based, unidentified mold. As to the method:
The fungus was allowed to grow at 25° C. for 3-5 days. At the end of this period, the diameter of the fungus on the plate was measured. All results were duplicated to assure accuracy. In a second series of experiments, the growth of fungus spores was measured under the same conditions as those described above. The number of colonies were measured, again after 3-5 days of incubation.

Where [3] appears, read: 15% composition in growth media.
Where [4] appears, read: 25% composition in growth media.

The structures appear in SMILES notation.

`O=C([O-])[O-].[Ca+2]` [Calcium carbonate]: the “Growth of Fungus (CFU diameter)” value in assay [1] (5% composition in growth media), in assay [1] (setting [3]) and in assay [1] (setting [4]) was 9 cm each time. In addition, the “Fungus Germination (CFU per ml)” value in assay [2] (5% composition in growth media) is reported as 100 CFU per ml; in assay [2] (setting [3]) it was 150 CFU per ml; in assay [2] (setting [4]) it was 110 CFU per ml.

For the origin of these results see patent US20040062807A1, “Biocide compositions and a method for their production” (priority 2001, published 2004).
